The source made the active and inactive calls. The rule behind the calls is not given here.

The text below walks through data of ChEMBL document CHEMBL5252612, “A novel selective estrogen receptor degrader induces cell cycle arrest in breast cancer via ERα degradation and the autophagy-lysosome pathway” (Bioorg Med Chem, 2023).

The test system of experiment [1] is T47D. Description: Induction of autophagy in human T47D cells assessed as increase in lysosome number by LysoTracker dye based confocal microscopy. Type of experiment: functional, cell-based.
For experiment [2], the system named is T47D. Description: Induction of autophagy in human T47D cells assessed as increase in LC3 protein expression by western blot analysis. Type of experiment: functional, cell-based. (In general: In western blotting, separated proteins are transferred to a membrane and probed.)
Experiment [3] is described as follows: Anticancer activity against ER-alpha positive human LCC2 cells assessed as reduction in cell viability measured after 48 hrs by CCK8 assay. It is filed as functional, cell-based. The settings on record: lcc2. Background: Tetrazolium assays rely on reduction of a dye to a coloured formazan, in cell work by metabolically active cells.
Experiment [4] relates to T47D. Description: Induction of autophagy in human T47D cells assessed as increase in autophagosome number by measuring LC3 puncta formation by immunofluorescence assay. It is filed as functional, cell-based.
For another experiment, the system named is MCF7. Description: Antitumor activity against human MCF7 cells xenografted in BALB/c nude mouse assessed as reduction in tumor volume at 4 mg/kg, ip administered every other day by caliper analysis. It is filed as functional, organism-based. (In xenograft studies the graft and the host belong to different species.)
For experiment [5], the system named is T47D. The experiment can be described thus: Induction of autophagy in human T47D cells assessed as downregulation of MYC protein expression incubated for 24 hrs by western blot analysis. Type of experiment: functional, cell-based. As to conditions: dose 1-5 µM.

Take `CC/C(=C(\c1ccccc1)c1ccc(OCCN(C)C)cc1)c1ccccc1` [TAMOXIFEN]: the outcome in the experiment on T47D [1], in the experiment on T47D [2] and in the experiment on T47D [4] was Active. Further, the IC50 entry in experiment [3] is “Not Active”.

Consider `C[C@]12CC[C@@H]3c4ccc(O)cc4C[C@@H](CCCCCCCCC[S+]([O-])CCCC(F)(F)C(F)(F)F)[C@H]3[C@@H]1CC[C@@H]2O` (some centres undefined), for which the outcome in the experiment on T47D [1], in the experiment on T47D [2], with MCF7 and in the experiment on T47D [4] was Active.

As to `CO[C@H]1C[C@@H]2CC[C@@H](C)[C@@](O)(O2)C(=O)C(=O)N2CCCC[C@H]2C(=O)O[C@H]([C@H](C)C[C@@H]2CC[C@@H](O)[C@H](OC)C2)CC(=O)[C@H](C)/C=C(\C)[C@@H](O)[C@@H](OC)C(=O)[C@H](C)C[C@H](C)/C=C/C=C/C=C/1C`, in the experiment on T47D [5], the Activity entry is “Dose-Dependent Effect”.
